Experiment [1] has as its target T1, GAPCP1 (Arabidopsis thaliana, UniProt Q9SAJ6).
T1 construct: N-terminal His6 (pDEST17), cloned from Arabidopsis cDNA, expressed in E. coli, SEC purified
Nature of the experiment: biochemical. More on the design: nanoDSF thermal shift, intrinsic fluorescence ratio 350/330 nm, Prometheus NT.48. The note with it: 1x PBS. As for the experimental part: (§1) Protein thermal stability measurements GAPC1/2, GAPCP1, and GAPCP2 proteins were obtained as described above, and the human GAPDH recombinant protein was obtained from a commercial supplier (Sigma) and stored in 10 mM Tris buffer (pH 7.5, 0.5 M NaCl). Tyr–Asp (25 μM), 3PGA (250 μM), and other dipeptides (25 μM) were prepared in 1× PBS buffer for the measurements using GAPC1/2 protein. For GAPCP1 Tyr–Asp (25 μM), 3PGA (250 μM) and other dipeptides (25 μM) were prepared in 1× PBS buffer, whereas for GAPCP2 Tyr–Asp (50 μM), 3PGA (250 μM) and other dipeptides (50 μM) were prepared in 1× PBS buffer. In addition, for the human GAPDH Tyr–Asp (500 μM), 3PGA (500 μM) and other dipeptides (500 μM) were prepared in Tris buffer (10 mM Tris-HCl, pH 7.5, 0.5 M NaCl). In accordance, GAPDH (1 μM) and GAPCs (0.2–0.25 mg/ml) were diluted using Tris or PBS buffer, respectively. Capillaries were loaded into the Prometheus NT.48 (Nanotemper). Unfolding was detected during heating in a linear thermal ramp (2 °C min^−1, 20–90 °C) with an excitation power of 60–100%. Temperature-dependent protein unfolding was determined from changes in tryptophan and tyrosine fluorescence at emission wavelengths of 350 and 330 nm. Melting temperatures were determined by detecting the maximum of the first derivative of the fluorescence ratios (F350 nm/F330 nm) as described previously ([43]). To validate the binding, we first tested a commercially available human homolog of GAPC1, GAPDH. Subsequently, plant GAPC1/2, GAPCP1, and GAPCP2 were overexpressed and purified from E. coli. Binding was probed using nano-DSF technology from Nanotemper (Prometheus NT.48; see under “Experimental procedures”). Prometheus NT.48 traces protein thermal stability by recording changes in the tryptophan residues during protein unfolding in an increasing temperature gradient. The melting temperature (Tm) of GAPDH was calculated as 60 °C, GAPC1/2 to 54 °C, GAPCP1 to 55 °C, and GAPCP2 to 55 °C (Fig. 7, C–F; Tables S5 and S6). […] Analogous results were obtained for Tyr–Asp. More specifically, 500 μM Tyr–Asp stabilized GAPDH by ∼1.1 °C, whereas 25–50 μM Tyr–Asp destabilized GAPC1/2, GAPCP1, and GAPCP2 by ∼1, 2, and 1.5 °C, respectively (Fig. 7, C–F; Tables S5 and S6). The obtained results validate the interaction between Tyr–Asp and plant glyceraldehyde-3-P dehydrogenases. The interaction is conserved in the human enzyme.

Experiment [2] has as its target T2, GAPCP2 (Arabidopsis thaliana, UniProt Q5E924).
T2 construct: N-terminal His6 (pDEST17), cloned from Arabidopsis cDNA, expressed in E. coli, SEC purified
Kind of experiment: biochemical. The note with it: 1x PBS. The arrangement: nanoDSF thermal shift, intrinsic fluorescence ratio 350/330 nm, Prometheus NT.48. As for the experimental part:
as §1

Experiment [3] concerns the target T3, GAPDH (Homo sapiens, UniProt P04406).
T3 construct: commercial human recombinant protein (Sigma)
Nature of the experiment: biochemical. More on the design: nanoDSF thermal shift, intrinsic fluorescence ratio 350/330 nm, Prometheus NT.48. The conditions noted are these: 10 mM Tris pH 7.5, 0.5 M NaCl. The method, then: as §1

A further experiment addresses T4, KPHMT1 (Arabidopsis thaliana, UniProt O82357).
T4 construct: N-terminal 144 bp of CDS (mitochondrial signal peptide, 48 residues) deleted; N-terminal His6 (pET300), E. coli BL21 Star (DE3); purified per Results, bacterial lysate used directly per Methods; RED-Tris-NTA labelled
T4 sequence (O82357 49-347): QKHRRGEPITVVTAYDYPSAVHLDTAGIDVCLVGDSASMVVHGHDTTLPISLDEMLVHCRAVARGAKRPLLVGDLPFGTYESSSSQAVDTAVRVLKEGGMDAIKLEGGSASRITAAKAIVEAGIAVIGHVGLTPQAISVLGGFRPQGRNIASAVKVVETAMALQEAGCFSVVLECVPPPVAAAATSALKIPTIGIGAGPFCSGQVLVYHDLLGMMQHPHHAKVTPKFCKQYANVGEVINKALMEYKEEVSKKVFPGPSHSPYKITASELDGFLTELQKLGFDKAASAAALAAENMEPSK
Kind of experiment: microscale thermophoresis. The format is binding. (In general: In MST a laser heats a spot of the sample, and binding alters the fluorescence response.)

The target of experiment [4] is T3, GAPDH. Nature of the experiment: nanoDSF thermal shift. Format: binding. The note with it: 500 μM ligand; 1 μM protein; 10 mM Tris-HCl pH 7.5, 0.5 M NaCl.
Another experiment concerns the target T5, MTI (Arabidopsis thaliana, UniProt Q9ZUG4).
T5 construct: gene At2g05830; N-terminal His6 (pET300), E. coli BL21 Star (DE3), Ni-NTA purified; RED-Tris-NTA labelled
T5 sequence (Q9ZUG4 1-374): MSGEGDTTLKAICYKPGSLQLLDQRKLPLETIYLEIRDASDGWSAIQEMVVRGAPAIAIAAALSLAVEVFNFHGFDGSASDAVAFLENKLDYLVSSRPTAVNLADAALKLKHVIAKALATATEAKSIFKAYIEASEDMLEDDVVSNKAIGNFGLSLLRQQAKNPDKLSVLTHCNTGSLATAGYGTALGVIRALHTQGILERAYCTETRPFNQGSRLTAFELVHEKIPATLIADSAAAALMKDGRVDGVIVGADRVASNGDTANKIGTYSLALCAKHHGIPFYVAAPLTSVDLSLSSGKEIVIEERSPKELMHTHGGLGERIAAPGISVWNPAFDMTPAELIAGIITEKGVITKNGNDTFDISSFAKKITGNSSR
Nature of the experiment: microscale thermophoresis. Format: binding.

Experiment [5] addresses T1, GAPCP1. Nature of the experiment: nanoDSF thermal shift. The conditions noted are these: 25 μM ligand; 0.2-0.25 mg/ml protein; PBS. Format: binding.
Experiment [6] deals with T2, GAPCP2. Nature of the experiment: nanoDSF thermal shift. The format is binding. The note with it: 50 μM ligand; 0.2-0.25 mg/ml protein; PBS. In general terms: In DSF a fluorescence change marks the thermal transition of the protein.
The target of experiment [7] is T1, GAPCP1. Nature of the experiment: biochemical. The arrangement: nanoDSF thermal shift; Tm from ratio of tryptophan fluorescence at 350 and 330 nm. As for the experimental part:
(§2) GAPC1/2, GAPCP1, and GAPCP2 proteins were obtained as described above, and the human GAPDH recombinant protein was obtained from a commercial supplier (Sigma) and stored in 10 mM Tris buffer (pH 7.5, 0.5 M NaCl). Tyr–Asp (25 μM), 3PGA (250 μM), and other dipeptides (25 μM) were prepared in 1× PBS buffer for the measurements using GAPC1/2 protein. For GAPCP1 Tyr–Asp (25 μM), 3PGA (250 μM) and other dipeptides (25 μM) were prepared in 1× PBS buffer, whereas for GAPCP2 Tyr–Asp (50 μM), 3PGA (250 μM) and other dipeptides (50 μM) were prepared in 1× PBS buffer. In addition, for the human GAPDH Tyr–Asp (500 μM), 3PGA (500 μM) and other dipeptides (500 μM) were prepared in Tris buffer (10 mM Tris-HCl, pH 7.5, 0.5 M NaCl). […] Unfolding was detected during heating in a linear thermal ramp (2 °C min^−1, 20–90 °C) with an excitation power of 60–100%. Temperature-dependent protein unfolding was determined from changes in tryptophan and tyrosine fluorescence at emission wavelengths of 350 and 330 nm. Melting temperatures were determined by detecting the maximum of the first derivative of the fluorescence ratios (F350 nm/F330 nm) as described previously ([43]). […] The melting temperature (Tm) of GAPDH was calculated as 60 °C, GAPC1/2 to 54 °C, GAPCP1 to 55 °C, and GAPCP2 to 55 °C (Fig. 7, C–F; Tables S5 and S6). […]

Experiment [8] has as its target T2, GAPCP2. Nature of the experiment: biochemical. More on the design: nanoDSF thermal shift; Tm from ratio of tryptophan fluorescence at 350 and 330 nm. The method, then: as §2

Molecules are shown by their SMILES. Where two headings read alike, the source gives them in different places. Where a SMILES comes first, the peptide text is derived from it.

These results are taken from paper PMC6093232, “PROMIS, global analysis of PROtein–metabolite interactions using size separation in Arabidopsis thaliana” (The Journal of Biological Chemistry, 2018).

T1 sequence (Q9SAJ6 whole entry): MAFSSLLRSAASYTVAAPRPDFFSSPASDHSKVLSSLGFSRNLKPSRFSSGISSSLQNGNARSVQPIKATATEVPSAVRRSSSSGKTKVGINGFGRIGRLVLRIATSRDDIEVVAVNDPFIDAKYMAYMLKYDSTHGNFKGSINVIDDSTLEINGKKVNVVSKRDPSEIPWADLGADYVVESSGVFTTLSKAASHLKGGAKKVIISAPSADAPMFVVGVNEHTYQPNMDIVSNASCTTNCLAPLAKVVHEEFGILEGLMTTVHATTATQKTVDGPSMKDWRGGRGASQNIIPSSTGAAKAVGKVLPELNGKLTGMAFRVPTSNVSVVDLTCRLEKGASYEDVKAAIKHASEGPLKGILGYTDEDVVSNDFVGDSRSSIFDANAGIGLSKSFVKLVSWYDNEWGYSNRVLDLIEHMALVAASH
T2 sequence (Q5E924 67-420): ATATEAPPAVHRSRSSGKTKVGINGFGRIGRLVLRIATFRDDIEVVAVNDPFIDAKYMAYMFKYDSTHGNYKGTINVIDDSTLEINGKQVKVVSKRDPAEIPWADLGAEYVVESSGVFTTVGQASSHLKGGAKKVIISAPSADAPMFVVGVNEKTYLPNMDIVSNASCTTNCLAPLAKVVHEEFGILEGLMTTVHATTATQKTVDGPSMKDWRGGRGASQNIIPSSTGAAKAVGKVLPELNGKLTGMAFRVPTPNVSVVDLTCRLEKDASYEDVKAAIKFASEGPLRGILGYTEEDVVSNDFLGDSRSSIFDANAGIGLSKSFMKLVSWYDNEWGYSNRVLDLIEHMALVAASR
T3 sequence (P04406 2-335): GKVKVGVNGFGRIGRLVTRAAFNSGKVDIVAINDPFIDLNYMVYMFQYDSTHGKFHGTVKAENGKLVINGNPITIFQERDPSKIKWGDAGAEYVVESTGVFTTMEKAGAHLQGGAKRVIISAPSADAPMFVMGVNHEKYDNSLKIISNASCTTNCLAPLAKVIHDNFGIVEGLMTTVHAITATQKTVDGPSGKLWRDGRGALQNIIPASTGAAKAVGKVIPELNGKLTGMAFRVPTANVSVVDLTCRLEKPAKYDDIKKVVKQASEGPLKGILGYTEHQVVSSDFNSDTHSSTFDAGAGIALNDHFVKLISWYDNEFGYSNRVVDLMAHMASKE

As a reminder, the ΔTm is the shift of the melting midpoint relative to a reference. For `NCC(=O)N1CCC[C@H]1C(=O)O` [GlyPro] (H-Gly-Pro-OH), the ΔTm at 25 µM on GAPCP1 [1] was -0.11 °C. In addition, the thermal shift (ΔTm) at 50 µM on GAPCP2 [2] worked out at 0.55 °C. For the same compound, at GAPDH [3], the ΔTm at 500 µM was 0.1 °C.

In general, Kd refers to the constant that tells how readily two partners part at equilibrium. Read a low Kd as higher affinity. As for `CC(C)(CO)[C@@H](O)C(=O)NCCC(=O)O` [pantothenate], the affinity on KPHMT1, expressed as Kd, was 500 µM.

`N[C@@H](Cc1c[nH]cn1)C(=O)N[C@@H](Cc1ccc(O)cc1)C(=O)O` [His–Tyr] (H-His-Tyr-OH): the dTm result at GAPDH [4] is on record as “Tm of the human GAPDH was affected by the presence of two other Tyr-containing dipeptides”. The shift in melting temperature (ΔTm) at 25 µM on GAPCP1 [1] is -0.02 °C. For the same compound, the ΔTm at 50 µM on GAPCP2 [2] was found to be 0.22 °C. Besides, the ΔTm at 500 µM at GAPDH [3] was -1.2 °C.

Take `CC(C)C[C@H](NC(=O)[C@@H](N)Cc1ccc(O)cc1)C(=O)O` [TyrLeu] (H-Tyr-Leu-OH): the ΔTm at 25 µM on GAPCP1 [1] was found to be 0.15 °C. Moreover, the ΔTm at 50 µM at GAPCP2 [2] came to 1.67 °C. Further, the ΔTm at 500 µM at GAPDH [3] amounted to 2.2 °C.

On to `O=C(O)CC[C@H](NC(=O)[C@@H]1CCCN1)C(=O)O` [ProGlu] (H-Pro-Glu-OH), for which, on GAPCP1 [1], the ΔTm at 25 µM is -0.1 °C. The ΔTm at 50 µM at GAPCP2 [2] was -0.12 °C. Besides, the ΔTm at 500 µM on GAPDH [3] worked out at 0.1 °C.

Regarding `CSC[C@H]1O[C@@H](n2cnc3c(N)ncnc32)[C@H](O)[C@@H]1O` [MTA], the Kd on MTI was 4 µM.

`CSCC[C@H](NC(=O)[C@@H](N)[C@@H](C)O)C(=O)O` [ThrMet] (H-Thr-Met-OH): the ΔTm at 25 µM at GAPCP1 [1] was -0.01 °C. For the same compound, the ΔTm at 50 µM on GAPCP2 [2] worked out at 0.66 °C. For the same compound, on GAPDH [3], the thermal shift (ΔTm) at 500 µM turned out to be 0.2 °C.

For `CC(C)C[C@H](N)C(=O)N[C@@H](Cc1ccccc1)C(=O)O` [LeuPhe] (H-Leu-Phe-OH), the ΔTm at 25 µM on GAPCP1 [1] was -0.33 °C. Besides, the ΔTm at 50 µM at GAPCP2 [2] amounted to 0.2 °C. Further, on GAPDH [3], the ΔTm at 500 µM was 0.2 °C.

For the compound `N[C@@H](Cc1ccc(O)cc1)C(=O)N[C@@H](CC(=O)O)C(=O)O` [Tyr–Asp] (H-Tyr-Asp-OH), the “dTm (destabilized)” value on GAPCP1 [5] is ~ 2 °C; on GAPCP2 [6] it was ~ 1.5 °C. Moreover, the ΔTm at 25 µM at GAPCP1 [1] (experiment 1) was -1.56 °C; at GAPCP1 [1] (experiment 2), -2.09 °C; at GAPCP1 [1] (experiment 3) it was -2.2 °C; at GAPCP1 [1] (experiment 4), -2.06 °C; at GAPCP1 [7], -2.06 °C. Also, the ΔTm at 50 µM on GAPCP2 [2] (experiment 1) is -1.6 °C; at GAPCP2 [2] (experiment 2), -1.58 °C; on GAPCP2 [2] (experiment 3), -1.55 °C; on GAPCP2 [2] (experiment 4) it was -1.23 °C; on GAPCP2 [8] it was -1.23 °C. Also, the ΔTm at 500 µM turned out to be 2.2 °C at GAPDH [3] (experiment 1), 1.31 °C at GAPDH [3] (experiment 2) and 1.06 °C at GAPDH [3] (experiment 4).
